Holding throughout (assay): KinaseProfiler kinase panel
What all share (format): biochemical

The target in test [1] is PKBα(h) (Homo sapiens (Human), UniProt P31749).
The target in test [2] is PDGFRα(D842V)(h) (Homo sapiens (Human), UniProt P16234, D842V).
The target in test [3] is MAPK2(h) (Homo sapiens (Human), UniProt P28482).
Chain of MAPK2(h) (P28482 whole entry): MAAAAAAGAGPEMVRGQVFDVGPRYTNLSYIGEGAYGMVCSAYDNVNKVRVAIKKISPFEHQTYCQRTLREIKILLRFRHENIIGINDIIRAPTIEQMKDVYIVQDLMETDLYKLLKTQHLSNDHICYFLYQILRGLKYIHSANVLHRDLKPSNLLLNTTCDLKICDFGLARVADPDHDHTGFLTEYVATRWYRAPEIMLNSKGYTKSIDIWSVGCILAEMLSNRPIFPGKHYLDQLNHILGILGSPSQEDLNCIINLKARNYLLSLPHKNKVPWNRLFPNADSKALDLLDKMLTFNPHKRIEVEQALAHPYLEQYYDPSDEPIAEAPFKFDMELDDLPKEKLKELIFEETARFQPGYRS

Chain of PDGFRα(D842V)(h) (P16234 24-1089 D842V): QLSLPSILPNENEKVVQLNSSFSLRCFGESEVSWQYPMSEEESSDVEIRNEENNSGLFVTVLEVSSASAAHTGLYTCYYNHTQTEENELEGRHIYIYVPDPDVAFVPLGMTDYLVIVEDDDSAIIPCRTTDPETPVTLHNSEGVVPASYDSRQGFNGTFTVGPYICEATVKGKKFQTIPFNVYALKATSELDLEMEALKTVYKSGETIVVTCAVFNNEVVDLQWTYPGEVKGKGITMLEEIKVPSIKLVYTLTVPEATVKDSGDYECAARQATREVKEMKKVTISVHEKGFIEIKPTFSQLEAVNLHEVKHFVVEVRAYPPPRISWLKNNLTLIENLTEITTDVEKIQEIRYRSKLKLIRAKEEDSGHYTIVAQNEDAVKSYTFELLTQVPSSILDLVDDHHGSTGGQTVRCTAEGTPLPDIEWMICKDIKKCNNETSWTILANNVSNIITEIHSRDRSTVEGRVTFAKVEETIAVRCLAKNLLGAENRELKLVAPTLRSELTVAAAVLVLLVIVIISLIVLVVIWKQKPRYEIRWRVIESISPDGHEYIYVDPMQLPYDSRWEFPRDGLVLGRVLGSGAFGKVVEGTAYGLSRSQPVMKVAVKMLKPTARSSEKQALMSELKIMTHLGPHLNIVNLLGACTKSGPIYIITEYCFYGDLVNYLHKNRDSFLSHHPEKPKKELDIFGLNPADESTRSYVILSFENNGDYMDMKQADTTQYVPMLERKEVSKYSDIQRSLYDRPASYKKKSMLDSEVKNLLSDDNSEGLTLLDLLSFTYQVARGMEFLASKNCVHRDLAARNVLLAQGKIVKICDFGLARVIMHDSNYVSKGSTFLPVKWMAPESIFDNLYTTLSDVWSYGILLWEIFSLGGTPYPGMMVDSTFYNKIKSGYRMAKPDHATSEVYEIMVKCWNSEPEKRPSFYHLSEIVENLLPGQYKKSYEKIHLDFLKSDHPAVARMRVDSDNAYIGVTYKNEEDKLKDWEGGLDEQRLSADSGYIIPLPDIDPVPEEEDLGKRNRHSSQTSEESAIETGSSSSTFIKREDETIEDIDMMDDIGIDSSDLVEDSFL
Chain of PKBα(h) (P31749 whole entry): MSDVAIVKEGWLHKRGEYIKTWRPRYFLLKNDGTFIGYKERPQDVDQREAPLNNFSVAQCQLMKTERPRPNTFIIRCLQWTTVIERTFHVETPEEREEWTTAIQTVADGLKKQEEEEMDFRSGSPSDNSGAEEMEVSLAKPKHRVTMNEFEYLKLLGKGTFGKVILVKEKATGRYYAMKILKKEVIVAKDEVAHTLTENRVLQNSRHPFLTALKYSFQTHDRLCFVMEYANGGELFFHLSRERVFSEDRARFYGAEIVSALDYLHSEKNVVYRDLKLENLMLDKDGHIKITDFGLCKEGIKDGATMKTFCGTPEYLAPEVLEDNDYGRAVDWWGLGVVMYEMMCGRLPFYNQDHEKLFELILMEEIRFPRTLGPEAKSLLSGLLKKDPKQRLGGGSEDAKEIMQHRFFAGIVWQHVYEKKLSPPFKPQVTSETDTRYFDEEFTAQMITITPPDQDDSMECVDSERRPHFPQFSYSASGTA

Usually remaining activity stands for the share of the control activity or signal that is left under treatment. The low end stands for little activity left, the high end for much activity left. Regarding `CCn1c(N2CCNCC2)nc2c(Br)c(Br)c(Br)c(Br)c21` [Compound 416, 4,5,6,7-tetrabromo-1-ethyl-2-(piperazin-1-yl)-1H-benzo[d]imidazole], the remaining activity at 1 µM in test [1] turned out to be 59%; in test [2] it was 17%; in test [3], 81%.

The values above are taken from US8604217B2, “Compound, a process for its preparation, a pharmaceutical composition, use of a compound, a method for modulating or regulating serine/threonine kinases and a serine/threonine kinases modulating agent” (Selvita S.A., priority 2009, dated 2013).
